Data as given in patent US20040254094A1, “Suppression of cyclin kinase activity for prevention and treatment of infections” (priority 2000, published 2004).
Read-outs that look alike come from different tables or passages of the source.

Assays:
[1] = test system: HCMV; assay: Viral late antigen pp28 expression by immunofluorescence in HCMV-infected LU cells; format: cell-based, Human cytomegalovirus; details: between 24 and 96 hr after infection in the presence of PAA
Experimental: Cells were cultured on sterile glass coverslips. The cells were washed three times in PBS and fixed in acetone:methanol (1:1) at −20° C. for 10 min. The permeabilized cells were incubated with primary antibody diluted in PBS for 1 hr at 37° C. in a humidified chamber. […] The excess conjugate was removed by washing the cells in PBS for 30 min. After drying, the cells were mounted in PBS/glycerol (1:1) and examined with the aid of a Zeiss Photomicroscope III using a 40/1.0 Neofluar lens. Images were photographed on slide film.

[2] = test system: human lung fibroblasts; details: 100 μg/ml (0.75 mM); cited from earlier work
[3] = test system: LU cells; details: within 24 hr after serum in the presence of PAA (about 68% without inhibitor)
Description: The specificity of PAA was confirmed by measuring cellular DNA content after serum stimulation of quiescent LU cells in the presence and absence of PAA.

[4] = test system: HCMV-infected subconfluent LU cells; assay: Cell cycle distribution (DNA content, flow cytometry) following HCMV infection of subconfluent LU cells; details: for Percent cells in phase G0/G1 / Percent cells in phase G2/M / Percent cells in phase S: HCMV 5 PFU/cell + PAA 100 μg/ml, mean (SD)
Experimental: The DNA content of serum-arrested, HCMV-infected, subconfluent LU cells was analyzed by flow cytometry to determine to what extent productively infected cells initiate DNA synthesis.
Next, the DNA content of LU cells as a function of time after HCMV infection of subconfluent cells in the presence of PAA was analyzed.

[5] = test system: Human Cytomegalovirus; assay: Infectious HCMV yield by plaque assay from infected density-arrested LU cells; format: cell-based, Human cytomegalovirus strain AD169; details: for inhibition at 3.3 µM / inhibition at 10 µM / inhibition at 33 µM / inhibition at 100 µM: Human betaherpesvirus 5, 96 h
[6] = test system: CDK1/cyclin B; details: cited from earlier work
[7] = test system: HCMV; assay: HCMV DNA abundance by slot blot hybridization in infected density-arrested LU cells; format: cell-based, Human cytomegalovirus strain AD169; details: 72 hr post-infection
[8] = test system: non-infected LU cells; assay: Hematoxylin and eosin staining of non-infected LU cells; format: cell-based, human; details: 15 μM for 96 hr
[9] = Tolerated dose in animals; format: in vivo; details: printed 'tolerated by rate'
Description: The preferred dosage of CDK inhibitor in a parenteral administration may vary, depending upon the extent of the virus infection, the severity of the symptoms associated with the infection and patient age, weight and medical history. The number of administrations of the parenteral composition of the CDK inhibitor will also vary according to the response of the individual patient to the treatment. In one exemplary application, the dosage of CDK inhibitor may vary with the type of disease and the route of administration. Further studies with animal models of infection will completely define projected doses. […] Weaker CDK2 inhibitors will be needed at higher concentrations, and stronger, at lower.

[10] = test system: HCMV-infected LU cells; assay: Hematoxylin and eosin staining of HCMV-infected LU cells
[11] = read-out: Percent inhibition of HCMV infectious yields, 3.3 μM, harvested 96 hrs
[12] = read-out: Percent inhibition of HCMV infectious yields, 10 μM (third line of each group), harvested 96 hrs
[13] = read-out: Percent inhibition of HCMV infectious yields, 10 μM, harvested 96 hrs
[14] = read-out: Percent inhibition of HCMV infectious yields, 33 μM, harvested 96 hrs
[15] = read-out: Percent inhibition of HCMV infectious yields, 100 μM, harvested 96 hrs
[16] = 3.3 μM, harvested 96 hrs, read-out: Percent inhibition of HCMV infectious yields
[17] = 10 μM (third line of each group), harvested 96 hrs, read-out: Percent inhibition of HCMV infectious yields
[18] = 10 μM, harvested 96 hrs, read-out: Percent inhibition of HCMV infectious yields
[19] = 33 μM, harvested 96 hrs, read-out: Percent inhibition of HCMV infectious yields
[20] = 100 μM, harvested 96 hrs, read-out: Percent inhibition of HCMV infectious yields
[21] = 10 μM (third line of each group), harvested 96 hrs

For `O=C(O)CP(=O)(O)O` [PAA, phosphonoacetic acid], the pp28 expression [1] is listed as “could not be detected”, the “viral DNA replication” value [2] is listed as “blocks viral DNA replication” and the “cells in S, G2, or M phase” value [3] is listed as “about 57%”. For the same compound, the “Percent cells in phase G0/G1” value ([4]; 0 hrs after treatment) was 93.3 (1.2) %, the “Percent cells in phase G2/M” value ([4]; 0 hrs after treatment) was 5.1 (1.0) % and the “Percent cells in phase S” value ([4]; 0 hrs after treatment) was 1.6 (0.2) %. For the same compound, the “Percent cells in phase G0/G1” value ([4]; 24 hrs) was 97.2 (0.4) %, the “Percent cells in phase G2/M” value ([4]; 24 hrs) was 1.9 (0.3) % and the “Percent cells in phase S” value ([4]; 24 hrs) was 0.9 (0.1) %. For the same compound, the “Percent cells in phase G0/G1” value ([4]; 48 hrs) was 97.1 (0.8) %, the “Percent cells in phase G2/M” value ([4]; 48 hrs) was 1.3 (0.4) % and the “Percent cells in phase S” value ([4]; 48 hrs) was 1.5 (0.4) %. The “Percent cells in phase G0/G1” value ([4]; 72 hrs) was 97.2 (0.3) %, the “Percent cells in phase G2/M” value ([4]; 72 hrs) was 0.9 (0.1) % and the “Percent cells in phase S” value ([4]; 72 hrs) was 1.9 (0.3) %. For the same compound, the “DNA content of LU cells after HCMV infection in the presence of PAA” value ([4]; subconfluent cells) was “no detectable increase in DNA content”.

`O=C1Cc2c([nH]c3ccc([N+](=O)[O-])cc23)-c2ccccc2N1` [Alsterpaullone] showed an inhibition at 3.3 µM [5, 11] of 100%, an inhibition at 10 µM [5, 12] of 100% and an inhibition at 10 µM [5, 13] of 100%. The inhibition at 33 µM [5, 14] was 100% and the inhibition at 100 µM [5, 15] was 100%.

In the case of `Cc1c2ccncc2c(C)c2c1[nH]c1ccc(O)cc12` [9-hydroxyellipticine], the IC50 [6] is listed as 1 µM.

For `CC[C@H](CO)Nc1nc(NCc2ccccc2)c2ncn(C(C)C)c2n1` [Roscovitine], the “HCMV DNA abundance reduced by” value ([7]; 1 μM) was about 50%, the “viral DNA abundance reduced by” value ([7]; 10 μM) was over 90% and the “Infectious HCMV yields reduced by” value ([5]; 2.5 μM, 96 hr post-infection) was over 90%. It also gave an inhibition at 3.3 µM [5, 11] of 90.7%, an inhibition at 10 µM [5, 12] of 96.5% and an inhibition at 10 µM [5, 13] of 91.3%. For the same compound, the inhibition at 33 µM [5, 14] was 100%, the inhibition at 100 µM [5, 15] was over 100% and the inhibition at 10 µM ([5]; read-out: inhibition of infectious HCMV yields, 10 μM, 96 hr post-infection) was over 99.9%. The “morphological changes of non-infected cells” value [8] was “no morphological changes”, the tolerated dose [9] was 3 µg/kg and the “morphology of HCMV-infected cells” value ([10]; 5 μM, 96 hr post-infection) was “rounded and appeared to be undergoing cell death”. For the same compound, the “morphology of HCMV-infected cells” value ([10]; 15 μM, 96 hr after infection) was “clearly dying or dead”.

With `CC(C)[C@H](CO)Nc1nc(Nc2cc(N)cc(Cl)c2)c2ncn(C(C)C)c2n1` [NG97, aminopurvalanol] the inhibition at 3.3 µM [5, 16] was 99.9%, the inhibition at 10 µM [5, 17] was 100% and the inhibition at 10 µM [5, 18] was 51.3%. The inhibition at 33 µM [5, 19] was 100% and the inhibition at 100 µM [5, 20] was 100%.

Work on `CN1CC[C@H](c2c(O)cc(O)c3c(=O)cc(-c4ccccc4Cl)oc23)[C@H](O)C1` [Flavopiridol] yielded an inhibition at 3.3 µM [5, 16] of 100%, an inhibition at 10 µM [5, 17] of 100% and an inhibition at 10 µM [5, 18] of 100%. For the same compound, the inhibition at 33 µM [5, 19] was 100% and the inhibition at 100 µM [5, 20] was 100%.

In the case of `Cc1ccc(C(=O)Nc2ccc(S(=O)(=O)O)c3cc(S(=O)(=O)O)cc(S(=O)(=O)O)c23)cc1NC(=O)c1cccc(NC(=O)Nc2cccc(C(=O)Nc3cc(C(=O)Nc4ccc(S(=O)(=O)O)c5cc(S(=O)(=O)O)cc(S(=O)(=O)O)c45)ccc3C)c2)c1` [Suramin], the IC50 [6] is listed as 4 µM.

With Indirubin-3′-monoxime the “Percent inhibition of HCMV infectious yields” value (“Percent inhibition” below) ([5]; 3.3 μM, harvested 96 hrs) was 56.69%, the “Percent inhibition” value [5, 21] was 99.9988% and the “Percent inhibition” value ([5]; 10 μM, harvested 96 hrs) was 26.67%. The “Percent inhibition” value ([5]; 33 μM, harvested 96 hrs) was 99.9976%, the “Percent inhibition” value ([5]; 100 μM, harvested 96 hrs) was 99.9992% and the IC50 [6] was 0.18 µM.

With `CCCCc1c(-c2ccc(O)cc2)[nH]c2nccnc12` [RP107] the “Percent inhibition” value ([5]; 3.3 μM, harvested 96 hrs) was 96.67%, the “Percent inhibition” value [5, 21] was 99.98% and the “Percent inhibition” value ([5]; 10 μM, harvested 96 hrs) was 74.67%. The “Percent inhibition” value ([5]; 33 μM, harvested 96 hrs) was 99.9968% and the “Percent inhibition” value ([5]; 100 μM, harvested 96 hrs) was 99.9984%.

In the case of `CC(C)=CCNc1ncnc2nc[nH]c12` [Isopentenyladenine], the IC50 [6] is listed as 55 µM.

For `CN[C@@H]1C[C@H]2O[C@@](C)([C@@H]1OC)n1c3ccccc3c3c4c(c5c6ccccc6n2c5c31)C(=O)NC4` [Staurosporine], the IC50 [6] is given as 0.004 µM.

For Purvalanol A&B, the IC50 [6] is given as 0.004 µM.

In the case of `OCCCNc1cc(-c2ccnc(Nc3cccc(Cl)c3)n2)ccn1` [CGP60474], the IC50 [6] is listed as 0.02 µM.

In the case of `COc1ccc(CNc2nc(N(CCO)CCO)nc3c2ncn3C(C)C)cc1` [CVT-313], the IC50 [6] is listed as 4.2 µM.

For `O=C1CCCO1` [γ-Butyrolactone], the IC50 [6] is listed as 0.6 µM.

For `N#Cc1cn([C@@H]2O[C@H](CO)[C@@H](O)[C@H]2O)c2ncnc(N)c12` [Toyocamycin], the IC50 [6] is listed as 0.88 µM.

In the case of `CN(C)c1ncnc2nc[nH]c12` [6-Dimethylaminopurine], the IC50 [6] is listed as 120 µM.
